pIC50: −log10 of the molar value. Read-outs that look alike come from different tables or passages of the source.
How the values were obtained:
B16-F10 [1] = test: Annexin V/propidium iodide apoptosis FACS, B16-F10; assay type: cell-based, mouse
Experimental: (§1) Cells grown in 6-well plates were treated with drugs for 48 h, and incubated with 5 μL AnnexinV-Alexa Fluor 488 in binding buffer (10 mM HEPES, 140 mM NaCl, 2.5 mM CaCl2, pH 7.4) for 15 min in the dark, according to the manufacturer's protocol. Cells were then washed with binding buffer, counterstained with propidium iodide and immediately processed for FITC and propidium iodide staining using a Becton Dickinson FACSCalibur flow cytometer (excitation 488 and 585 nm, respectively). AnnexinV-Alexa Fluor 488, propidium iodide or both were omitted for the negative controls.
as §1, with “Cancer cells grown” for “Cells grown”, “5 μl” for “5 μL”

[2] = system: panel of 18 other serine/threonine kinases; details: previous studies [15]; cited from earlier work
ERK1/2 [3] = test: Immunoblotting of phosphorylated vs total ERK1/2, B16-F10; assay type: cell-based, mouse; details: 50 μM
Experimental: (§2) Cells were washed twice with PBS and directly lysed in 3× loading buffer containing 12% sodium dodecyl sulfate, 15% 2-mercaptoethanol, 1 mM sodium orthovandate and protease inhibitor cocktail tablets from Roche Applied Science (Indianapolis, Ind.). Cells were further homogenized by passing the lysates 3 times through an insulin needle. Samples were then heated for 5 min at 100° C. and equal amounts loaded onto tris-glycine SDS-polyacrylamide gels. Proteins were electrophoretically transferred onto polyvinylidene difluoride membranes, blocked for 1 h with 7% non-fat dry milk, and subsequently incubated overnight at 4° C. with primary antibodies directed against the phosphorylated or total forms of ERK1//2 and AKT. Proteins were detected with horseradish peroxidase-conjugated anti-rabbit secondary antibodies and Lumi-LightPLUS Western Blotting Substrate (Roche Applied Science). The blots were developed using GeneSnap and optical densities off the protein bands quantified using GeneTools (both from SynGene, Frederick, Md.). Predetermined molecular weight standards were used as markers. Proteins were normalized against actin.
(§3) The inventors next evaluated the effect of the treatments on the phosphorylation status of ERK in the two cell lines. […]

MEK = details: previous studies [15]; read-out: IC50 for inhibition of MEK; cited from earlier work
ERK1/2 [4] = test: Immunoblotting of phosphorylated vs total ERK1/2, MDA-MB-231; assay type: cell-based, human; details: 50 μM
Experimental: as §2, §3

MDA-MB-231 [5] = test: Annexin V/propidium iodide apoptosis FACS, MDA-MB-231; assay type: cell-based, human
Experimental: as §1
as §1, with “Cancer cells grown” for “Cells grown”, “5 μl” for “5 μL”

B16/F10 melanoma = test: In vivo murine B16/F10 melanoma tumor model; set-up: species or system mouse
Experimental: Male C57/BL6 mice (20 g) were injected with 5×10^5 BL6/F10 melanoma cells into the flanks. The drug therapy was started after the tumors attained volume of 25 mm3. The animals were intravenously injected with free PD98059 or PD98059-nanoparticles such that the total dose of PD98059 was 5 mg/kg of PD98059 (administered by tail vein injection). A batch of PD98059 (free or as nanoparticle)-treated animals were subsequently injected with cisplatin (2.5 mg/kg), which was administered intraperitoneally after […] following the PD98059 dosing. The total volume of injection was 100 μl. The tumor volumes and body weights were monitored on a daily basis. The animals were sacrificed at predefined time points. The organs (liver, lung, spleen, kidney and tumor) were harvested immediately following sacrifice and divided into equal parts and stored at −80° C. for further analysis.
To validate the therapeutic efficacy of this treatment, the inventors randomly sorted mice bearing established B16/F10 melanomas into five groups, which received three doses of one of the following treatments (i) vehicle control (ii) free PD98 059 (5 mg/kg) (iii) PD98059-nanoparticle (equivalent to 5 mg/kg of PD98059) (iv) Cisplatin (1.25 mg/kg) and (v) PD98059-nanoparticle (equivalent to 5 mg/kg of PD98059)+Cisplatin (1.25 mg/kg). Cisplatin was administered intraperitoneally one day after the PD98059 administration in order to achieve a sequential biological effect of MAPK-inhibition followed by induction of chemotherapy-induced cytotoxicity. The mice injected with only vehicle formed large tumors by day 14, and consequently, were euthanized. The animals in the other groups were also sacrificed at the same time point to evaluate the effect of the treatments on tumor pathology.

AKT [6] = test: Immunoblotting of VEGF-induced AKT phosphorylation, HUVEC; assay type: cell-based, human; details: 50 μM, 24 hours
HUVEC [7] = test: HUVEC tube assay on matrigel; assay type: cell-based, human; details: for inhibition at 50 µM: Homo sapiens, HUVEC, 48 hrs
Experimental: The effect of the drugs using an in vitro angiogenic assay were quantified as follows. HUVEC were seeded in 24-well plates, on glass coverslips that had been coated with matrigel, in medium containing 50 μM of LY or NP-LY for 24 and 48 hrs. At each time points, cells were fixed with 4% paraformaldehyde and immediately visualized under inverted light microscopy at 20× magnification (Nikon Eclipse). Since the matrigel tube assay often yields high variability, we took 10 fields of view per coverslip with 5 coverslips per conditions, and furthermore, used three morphometric methods using the NIS-elements software (Nikon, Melville, N.Y., courtesy of Dr Jeffrey M. Karp) to quantify the results. In the first such method, we measured the length of each tube per field, in the second we measured the associated number of nodes, whereas in the third method, we used a standard graticule to measure the number of vessels falling on each intersection.

B16-F10 [8] = test: MTS cell viability assay, B16-F10; assay type: cell-based; details: Mus musculus, 48 hrs, read-out: proportion of viable cells as percentage of vehicle-treated control
Experimental: (§4) Cancer cells in 96-well plates were incubated with various doses PD or NP for 24, 48 and 72 hrs. The percentage of viable cells was then quantified with 3-(4,5-Dimethylthiazol-2-yl)-5-(3-carboxymethoxyphenyl)-2-(4-sulfophenyl)-2H-tetrazolium (MTS) from the CellTiter 96 AQueous One Solution kit. MTS is reduced by mitochondrial dehydrogenases of live cells, yielding a colored adduct that can be read spectrophotometrically. Briefly, the cells were washed with PBS, incubated with 0.3 mg/ml of MTS, in basal medium without phenol red, for 4 hrs at 37° C. and absorbance was then measured at 490 nm in a plate reader (Versamax, Molecular Devices, Sunnyvale, Calif.). Final absorbance, corresponding to cell proliferation, was plotted after removing background values from each data point.
(§5) Cancer or endothelial cells in 96-well plates were incubated with various doses of free LY or NP-LY for 24, 48 and 72 hrs. The percentage of viable cells were then quantified with 3-(4,5-Dimethylthiazol-2-yl)-5-(3-carboxymethoxyphenyl)-2-(4-sulfophenyl)-2H-tetrazolium (MTS) from the CellTiter 96 AQueous One Solution kit. MTS is reduced by mitochondrial dehydrogenases of live cells, yielding a colored adduct that can be read spectrophotometrically. […] Final absorbance, corresponding to cell proliferation, was plotted after removing background values from each data point.

PI3K = details: literature [17]; cited from earlier work
MDA-MB-231 [9] = test: MTS cell viability assay, MDA-MB-231; assay type: cell-based; details: Homo sapiens, 48 hrs, read-out: proportion of viable cells as percentage of vehicle-treated control
Experimental: as §4, §5

LLC = test: MTS cell viability assay, LLC; assay type: cell-based; details: Mus musculus, Lewis lung carcinoma, 48 hrs, read-out: proportion of viable cells as percentage of vehicle-treated control
Experimental: as §4, §5

HUVEC [10] = test: MTS assay of FGF-induced HUVEC proliferation; assay type: cell-based, human; details: increasing concentrations, 24 and 48 hours
Text: Human umbilical vein endothelial cells (HUVEC) were obtained from Cambrex Bio Science (Hopkinton, Mass.) and cultured in EGM-2 medium according to the manufacturer's protocol. A single donor was obtained at passage one, and cells were used between passages 2 and 5. After reaching the first confluence in 100 mm dishes (within 6 to 7 days), the cells were subcultured following trypsin (0.025%) and EDTA (0.01%) application, and plated at various densities depending on the experiment. For all experiments, HUVEC were synchronized overnight using serum reduced medium (0.1% FBS) prior to drug addition, except in the case of the tube assay. […]
as §4, with “Cancer or endothelial” for “Cancer”, “doses of free LY” for “doses PD”, “or NP-LY” for “or NP”, “cells were” for “cells was”, “Calif.). […]” for “Calif.). Final absorbance, corresponding to cell proliferation, was plotted after removing background values from each data point.”

AKT [11] = test: Immunoblotting of phosphorylated vs total AKT, MDA-MB-231; assay type: cell-based, human; details: 50 μM, 24 hrs
Experimental: as §2, with “Cancer or endothelial cells were washed” for “Cells were washed”, “forms of AKT. Proteins” for “forms of ERK1//2 and AKT. Proteins”
To further evaluate the underlying mechanisms of action of nanoparticles in cancer cells, MDA-MB-231 and B16-F10 were treated with 50 μM of LY294002 or NP-LY and subjected to immunoblotting against the phospho- and total forms of AKT (FIG. 8A). […]

COc1cccc(-c2cc(=O)c3ccccc3o2)c1N [PD98059]
increase in late apoptosis (B16-F10 [1]; 48 hours): 61 fold | number of cells in the necrotic stage relative to PD98059-nanoparticle-treated cells (B16-F10 [1]; 48 hours): 51 fold | inhibitory effects against a panel of 18 other serine/threonine kinases [2]: no inhibitory effects | effect on phospho-ERK signal (ERK1/2 [3]): almost completely abolished | pIC50 (MEK): […] | inhibition of ERK signaling (phospho-ERK1/2 vs total) (ERK1/2 [4]): 5 fold | induction of apoptosis (MDA-MB-231 [5]; 48 hours): failed to induce significant apoptosis | intratumoral ERK phosphorylation (immunostaining) (B16/F10 melanoma; data not shown): detected | tumor apoptosis (TUNEL-staining) (B16/F10 melanoma; data not shown): minimal effect | tumor growth (tumor volume) (B16/F10 melanoma; three doses, PD98059 5 mg/kg i.v., cisplatin 1.25 mg/kg i.p. one day later, to day 14): only partially inhibited

N.N.[Cl][Pt][Cl] [cisplatin]
intratumoral ERK phosphorylation (immunostaining) (B16/F10 melanoma; data not shown): detected | necrotic areas in hematoxylin-eosin tumor sections (B16/F10 melanoma; data not shown): large necrotic areas | tumor apoptosis (TUNEL-staining) (B16/F10 melanoma; data not shown): significant levels of apoptosis

O=c1cc(N2CCOCC2)oc2c(-c3ccccc3)cccc12 [LY294002, 2-(4-morpholinyl)-8-phenylchromone]
inhibition of VEGF-induced phosphorylation of AKT (AKT [6]): complete inhibition | tube formation (HUVEC [7]; 50 μM, 24 hrs): significantly inhibited | inhibition at 50 µM (HUVEC [7]; read-out: inhibition of branch length): 98% | inhibition at 50 µM (HUVEC [7]; read-out: inhibition of the number of intersections): 87% | inhibition at 50 µM (HUVEC [7]; read-out: inhibition of the number of nodes): 99% | viability at 50 µM (B16-F10 [8]): 8% | cells in early apoptosis (B16-F10 [1]; 48 hrs): 61.64% | cells in late apoptosis (B16-F10 [1]; 48 hrs): 0.22% | pIC50 (PI3K): […] | viability at 50 µM (MDA-MB-231 [9]): 116% | viability at 50 µM (LLC): 2% | effect on FGF-induced cell proliferation (HUVEC [10]): […] | cells in early apoptosis (MDA-MB-231 [5]; 48 hrs): 3.11% | cells in late apoptosis (MDA-MB-231 [5]; 48 hrs): 0.09% | inhibition of phosphorylation of AKT (AKT [11]): only minimal effect

From patent US20120052041A1, “POLYMERIC NANOPARTICLES WITH ENHANCED DRUG-LOADING AND METHODS OF USE THEREOF” (THE BRIGHAM AND WOMEN'S HOSPITAL, INC., priority 2009, published 2012)
